Experimental data from PMC6274284 (Molecules, 2016).

Assays:
hGRX1 [1] = target: T1, hGRX1 (Homo sapiens, UniProt P35754, C83S); type: binding
hGRX1 [2] = target: T1, hGRX1; assay: biochemical; type: binding
hGRX1 [3] = target: T1, hGRX1; type: binding; remark: listed apart in the source

T1 sequence (P35754 whole entry C83S, looked up): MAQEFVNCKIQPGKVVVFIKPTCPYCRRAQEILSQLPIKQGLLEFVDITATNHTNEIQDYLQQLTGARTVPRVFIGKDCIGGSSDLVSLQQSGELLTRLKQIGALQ

SMILES	MaxRel.STD hGRX1 (hGRX1 [1]) [%]	other results
C=CC(N)=O [acrylamide, reference compound]	–	Reaction half life, hGRX (hGRX; human): about 20 h
C=CC(=O)NCc1ccn(-c2ccc(C(=O)OC)cc2)c1 [compound 5, Methyl 4-(3-(Acrylamidomethyl)-1H-pyrrol-1-yl)benzoate]	–	Enhancement of rate of reaction over naked acrylamide, hGRX (hGRX): about 35 fold
COCc1cc(=O)oc2cc(O)c(Cl)cc12 [RK450]	37.1	–
OCc1cc(-c2cccs2)[nH]n1 [RK126]	23.4	–
O=C(O)c1ccc(-c2cnco2)cc1 [RK036]	2.1	–
COC(=O)c1cccc2cc[nH]c12 [RK028]	11.2	–
Nc1ccc(CN2CCOCC2)cc1 [RK428]	0.6	–
Cn1nc(C(=O)O)cc1-c1ccccc1 [RK246]	0.6	Kd (hGRX1 [2]): 5.22 ± 1.16 mM
COCc1cc(=O)oc2cc(N)ccc12 [RK411]	13.7	–
Nc1ccccc1N1CCNCC1 [RK155]	–	trNOE binding result, hGRX1 (hGRX1 [3]): did not bind
O=C(O)c1ccc(-n2cccc2)cc1 [RK207]	0.5	Kd (hGRX1 [2]): 2.45 ± 0.52 mM
